How the values were obtained:
[1] = molecular target: T1, EcTDH (L-threonine dehydrogenase) (Escherichia coli, UniProt P07913); experiment: NADH formation at […] nm, lysate supernatant; type: biochemical; conditions: 100 mM Tris-HCl pH 9.0, 100 mM L-threonine, 50 mM NAD+, 30 °C
T1 construct: gene tdh; recombinant from pACYCDuet-1 (BamH I/Hind III) in E. coli BL21(DE3); crude lysate supernatant; gene about 1100 bp
T1 sequence (P07913 1-341): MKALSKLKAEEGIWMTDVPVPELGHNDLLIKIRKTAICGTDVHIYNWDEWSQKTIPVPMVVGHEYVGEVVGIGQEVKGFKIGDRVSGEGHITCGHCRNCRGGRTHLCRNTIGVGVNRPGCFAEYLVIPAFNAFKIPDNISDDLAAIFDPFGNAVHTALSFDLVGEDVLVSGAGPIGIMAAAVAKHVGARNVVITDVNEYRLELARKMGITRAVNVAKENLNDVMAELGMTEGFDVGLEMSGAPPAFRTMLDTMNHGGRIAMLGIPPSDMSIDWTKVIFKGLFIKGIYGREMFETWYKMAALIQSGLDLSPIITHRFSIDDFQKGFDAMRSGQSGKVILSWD

EhNOX (NADH oxidase) = molecular target: T2, EhNOX (NADH oxidase) (Enterococcus hirae, UniProt I6S3N3); experiment: NADH consumption, lysate supernatant; type: biochemical; conditions: 200 μM NADH, 10 μM FAD, 1 mM dithiothreitol, 20 mM citrate-sodium citrate pH 5.6
T2 construct: gene EHR_12315; recombinant from pACYCDuet-1-Ectdh-Ehnox (Nde I/Xho I) in E. coli BL21(DE3), co-expressed with EcTDH; crude lysate supernatant; gene about 1400 bp
T2 sequence (I6S3N3 1-450): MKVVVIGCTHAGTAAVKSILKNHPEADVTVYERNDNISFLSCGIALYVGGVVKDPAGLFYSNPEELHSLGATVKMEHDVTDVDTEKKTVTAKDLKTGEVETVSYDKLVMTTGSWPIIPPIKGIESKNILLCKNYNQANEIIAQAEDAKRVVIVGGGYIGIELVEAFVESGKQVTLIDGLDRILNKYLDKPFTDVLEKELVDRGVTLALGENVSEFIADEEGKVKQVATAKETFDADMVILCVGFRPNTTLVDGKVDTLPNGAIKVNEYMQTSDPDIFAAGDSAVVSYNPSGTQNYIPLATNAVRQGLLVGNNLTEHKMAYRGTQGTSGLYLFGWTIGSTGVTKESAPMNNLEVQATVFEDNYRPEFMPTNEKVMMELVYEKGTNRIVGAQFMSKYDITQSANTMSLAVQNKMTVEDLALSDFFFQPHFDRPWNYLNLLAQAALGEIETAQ

Row | Compound | NADH formation at 340 nm, lysate supernatant [1] | NADH consumption, lysate supernatant (EhNOX (NADH oxidase))
1 | C[C@@H](O)[C@H](N)C(=O)O [L-threonine] | The enzyme activity of EcTDH was determined using L-threonine as the substrate | –
2 | NC(=O)C1=CN([C@@H]2O[C@H](COP(=O)(O)OP(=O)(O)OC[C@H]3O[C@@H](n4cnc5c(N)ncnc54)[C@H](O)[C@@H]3O)[C@@H](O)[C@H]2O)C=CC1 [NADH] | – | The enzyme activity of EhNOX was determined using NADH as substrate

— publication PMC10949639, “Engineering Escherichia coli for high-yielding 2,5-Dimethylpyrazine synthesis from L-Threonine by reconstructing metabolic pathways and enhancing cofactors regeneration” (Biotechnology for Biofuels and Bioproducts, 2024)
